According to patent US12258355B2, “Probes for imaging huntingtin protein” (CHDI Foundation, Inc., priority 2014, dated 2025):

Target: T1, Q46 protein aggregates (Homo sapiens, UniProt P42858)
T1 construct: fused on or other part: GST at the N-terminus, cut off with thrombin before the test to start aggregation; The wells held aggregated Q46 without GST
Test: Q46 radioligand binding assay (RBA)
Settings: 10 nM ligand [3H3]MK-3328
Protocol: Q46 Radioligand Binding Assay
For radioligand binding assays (RBA) GST-Q46 protein was generated based on a previous publication (Scherzinger et al. Cell, Vol. 90, 549-558, Aug. 8, 1997). For experiments 33 μM GST-Q46 was incubated with 150 μg/mL thrombin in assay buffer (150 mM NaCl, 50 mM Tris pH 8.0) and 2 mM CaCl2 for 16 hours at 37° C. Aggregated Q46 was pelleted by centrifugation for 5 minutes at 13,000 rpm in a bench top centrifuge and re-dissolved in the same volume of assay buffer. Test compounds were prepared by titration in DMSO at 11 concentrations from 33 μM to 1 nM. For the RBA, Q46 protein aggregates and test compounds were pre-incubated in assay buffer for 20 minutes at room temperature, in 140 μL/well in a 96-well plate (pp, round bottom). Then, ligand was added in 10 μL/well and incubated for 60 minutes at 37° C. Final assay concentrations were 1 μM to 30 pM test compound, 5 μM Q46 protein (equivalent monomer concentration) and 10 nM ligand [^3H3]MK-3328 (Harrision et al., ACS Med. Chem. Lett., 2 (2011), pp 498-502). Samples were transferred onto GF/B filter plates and washed 2× with 200 μL PBS using a Filtermate Harvester. After drying filter plates for 1 hour at 37° C., the back of the plates were sealed with foil and 30 μL/well scintillation fluid (Packard MicroScint 40) added, incubated for 15 minutes in the dark and counted in a TopCount reader. For analysis, replicate data from independent assay plates were normalized towards 0% and 100% inhibition using control wells of vehicle (0% inhibition) and 3 μM unlabelled MK-3328 (100% inhibition). IC50 values were determined with a sigmoidal inhibition model with four variables (top, bottom, slope, IC50) in a global fit using the normalized replicate data.

T1 sequence (P42858 with tags, fused parts or gaps with the stated changes, form open): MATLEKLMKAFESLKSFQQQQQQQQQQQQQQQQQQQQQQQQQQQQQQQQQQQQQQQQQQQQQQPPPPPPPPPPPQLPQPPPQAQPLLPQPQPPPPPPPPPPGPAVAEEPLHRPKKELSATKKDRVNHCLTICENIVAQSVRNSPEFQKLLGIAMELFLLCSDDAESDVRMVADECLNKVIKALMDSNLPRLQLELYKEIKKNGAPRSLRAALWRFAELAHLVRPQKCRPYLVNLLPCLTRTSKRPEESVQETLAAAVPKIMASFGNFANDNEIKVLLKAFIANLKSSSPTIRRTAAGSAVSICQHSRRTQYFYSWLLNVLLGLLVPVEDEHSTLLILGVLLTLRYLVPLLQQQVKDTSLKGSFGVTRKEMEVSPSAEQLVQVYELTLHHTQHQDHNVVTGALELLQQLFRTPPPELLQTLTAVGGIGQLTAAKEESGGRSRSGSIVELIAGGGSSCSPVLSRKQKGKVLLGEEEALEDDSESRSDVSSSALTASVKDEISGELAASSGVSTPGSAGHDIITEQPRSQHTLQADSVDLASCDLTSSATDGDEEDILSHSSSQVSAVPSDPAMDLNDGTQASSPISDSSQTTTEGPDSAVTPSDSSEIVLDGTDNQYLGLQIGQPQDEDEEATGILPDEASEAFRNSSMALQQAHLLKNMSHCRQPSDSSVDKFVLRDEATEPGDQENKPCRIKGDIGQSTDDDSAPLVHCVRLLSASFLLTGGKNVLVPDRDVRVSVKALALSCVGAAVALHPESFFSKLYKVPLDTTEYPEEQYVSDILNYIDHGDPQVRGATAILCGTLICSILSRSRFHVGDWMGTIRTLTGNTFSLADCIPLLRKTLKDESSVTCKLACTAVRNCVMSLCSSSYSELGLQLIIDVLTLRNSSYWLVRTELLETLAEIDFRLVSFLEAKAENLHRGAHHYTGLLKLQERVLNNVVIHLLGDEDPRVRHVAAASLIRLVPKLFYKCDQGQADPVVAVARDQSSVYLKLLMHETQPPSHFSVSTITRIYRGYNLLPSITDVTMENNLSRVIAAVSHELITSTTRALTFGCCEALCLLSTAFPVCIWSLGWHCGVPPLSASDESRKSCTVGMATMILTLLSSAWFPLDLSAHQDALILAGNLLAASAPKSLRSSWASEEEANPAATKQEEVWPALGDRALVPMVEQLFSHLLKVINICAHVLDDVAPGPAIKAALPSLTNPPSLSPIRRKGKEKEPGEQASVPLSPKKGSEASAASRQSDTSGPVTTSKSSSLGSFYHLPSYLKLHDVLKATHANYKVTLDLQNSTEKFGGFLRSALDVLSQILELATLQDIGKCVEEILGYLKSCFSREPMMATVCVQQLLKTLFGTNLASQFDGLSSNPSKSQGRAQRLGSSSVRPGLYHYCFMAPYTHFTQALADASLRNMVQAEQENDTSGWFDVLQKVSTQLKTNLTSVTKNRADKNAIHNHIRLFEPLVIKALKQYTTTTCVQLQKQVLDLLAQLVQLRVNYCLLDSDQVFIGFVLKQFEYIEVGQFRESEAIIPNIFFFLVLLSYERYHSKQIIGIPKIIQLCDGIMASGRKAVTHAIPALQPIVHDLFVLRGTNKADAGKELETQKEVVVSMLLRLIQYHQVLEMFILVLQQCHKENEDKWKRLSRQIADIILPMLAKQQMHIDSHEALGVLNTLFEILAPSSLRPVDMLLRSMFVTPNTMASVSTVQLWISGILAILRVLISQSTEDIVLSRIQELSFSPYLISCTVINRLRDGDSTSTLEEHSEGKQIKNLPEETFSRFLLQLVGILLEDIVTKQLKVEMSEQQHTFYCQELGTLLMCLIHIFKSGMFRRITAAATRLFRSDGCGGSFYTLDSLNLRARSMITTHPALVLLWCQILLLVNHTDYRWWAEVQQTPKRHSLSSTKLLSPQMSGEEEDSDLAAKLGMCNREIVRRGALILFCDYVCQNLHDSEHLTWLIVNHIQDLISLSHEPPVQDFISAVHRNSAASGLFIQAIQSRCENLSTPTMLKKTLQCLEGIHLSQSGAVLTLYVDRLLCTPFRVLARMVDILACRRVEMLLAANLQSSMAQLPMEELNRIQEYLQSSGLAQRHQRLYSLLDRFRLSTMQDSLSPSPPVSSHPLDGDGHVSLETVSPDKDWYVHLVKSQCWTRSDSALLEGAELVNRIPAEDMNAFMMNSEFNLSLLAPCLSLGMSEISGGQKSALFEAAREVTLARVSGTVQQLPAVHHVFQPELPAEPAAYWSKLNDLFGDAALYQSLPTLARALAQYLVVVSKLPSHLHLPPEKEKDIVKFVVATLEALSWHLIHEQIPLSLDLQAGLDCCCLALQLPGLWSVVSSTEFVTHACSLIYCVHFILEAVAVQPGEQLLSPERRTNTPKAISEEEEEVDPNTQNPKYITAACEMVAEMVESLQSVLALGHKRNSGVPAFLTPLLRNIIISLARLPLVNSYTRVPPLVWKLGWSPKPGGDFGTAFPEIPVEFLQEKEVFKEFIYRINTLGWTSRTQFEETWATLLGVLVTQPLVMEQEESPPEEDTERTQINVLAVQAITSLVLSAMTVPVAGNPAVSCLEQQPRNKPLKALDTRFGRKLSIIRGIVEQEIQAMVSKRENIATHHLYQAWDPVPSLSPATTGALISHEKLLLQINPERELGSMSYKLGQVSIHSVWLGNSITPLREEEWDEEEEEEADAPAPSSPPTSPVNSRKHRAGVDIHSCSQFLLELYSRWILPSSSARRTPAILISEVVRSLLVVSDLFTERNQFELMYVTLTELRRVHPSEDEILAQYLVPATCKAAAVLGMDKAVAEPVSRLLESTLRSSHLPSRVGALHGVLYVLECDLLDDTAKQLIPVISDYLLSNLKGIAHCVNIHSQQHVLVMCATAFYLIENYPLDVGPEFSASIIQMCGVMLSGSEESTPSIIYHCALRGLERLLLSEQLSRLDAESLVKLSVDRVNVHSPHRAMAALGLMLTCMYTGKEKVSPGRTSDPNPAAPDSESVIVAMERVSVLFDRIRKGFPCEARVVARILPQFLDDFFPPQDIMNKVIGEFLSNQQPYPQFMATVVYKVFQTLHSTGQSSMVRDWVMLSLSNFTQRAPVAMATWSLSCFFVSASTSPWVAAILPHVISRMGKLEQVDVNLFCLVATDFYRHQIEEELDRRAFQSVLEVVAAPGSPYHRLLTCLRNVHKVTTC

| SMILES | IC50 [nM] |
| --- | --- |
| O=C(Nc1ccc2oc(-c3cccnc3)nc2c1)c1nnc(-c2ccccc2)o1 | < 100 |
| OC(Cc1ccc2oc(-c3cccnc3)nc2c1)c1ccccn1 (stereo not shown) [1-(pyridin-2-yl)-2-[2-(pyridin-3-yl)-1,3-benzoxazol-5-yl]ethan-1-ol] | 100 to 500 |
| O=C(Cc1ccc2oc(-c3cccnc3)nc2c1)c1ccccn1 [1-(pyridin-2-yl)-2-[2-(pyridin-3-yl)-1,3-benzoxazol-5-yl]ethan-1-one] | 100 to 500 |
| Cn1cc(-c2cc3cc(OCc4cncnc4)ccc3o2)c(C#N)n1 [1-methyl-4-[5-(pyrimidin-5-ylmethoxy)-1-benzofuran-2-yl]-1H-pyrazole-3-carbonitrile] | < 100 |
| Cn1cc(COc2ccc3oc(-c4cccnc4)nc3c2)ncc1=O [1-methyl-5-({[2-(pyridin-3-yl)-1,3-benzoxazol-5-yl]oxy}methyl)-1,2-dihydropyrazin-2-one] | 100 to 500 |
| Cn1nc(C(=O)Nc2ccc3oc(-c4ccc(=O)n(C)n4)nc3c2)ccc1=O [1-methyl-N-[2-(1-methyl-6-oxo-1,6-dihydropyridazin-3-yl)-1,3-benzoxazol-5-yl]-6-oxo-1,6-dihydropyridazine-3-carboxamide] | < 100 |
| Cn1cc(C(=O)Nc2ccc3oc(-c4cccnc4)nc3c2)cn1 [1-methyl-N-[2-(pyridin-3-yl)-1,3-benzoxazol-5-yl]-1H-pyrazole-4-carboxamide] | < 100 |
| COc1ccc(COc2ccc3oc(-c4cc5ccccc5o4)nc3c2)nc1 [2-(1-benzofuran-2-yl)-5-[(5-methoxypyridin-2-yl)methoxy]-1,3-benzoxazole] | < 100 |
| COc1ccc(COc2ccc3oc(-c4ccc5occc5c4)nc3c2)nc1 [2-(1-benzofuran-5-yl)-5-[(5-methoxypyridin-2-yl)methoxy]-1,3-benzoxazole] | < 100 |
| COc1ccc(COc2ccc3oc(-n4ccnc4)nc3c2)nc1 [2-(1H-imidazol-1-yl)-5-[(5-methoxypyridin-2-yl)methoxy]-1,3-benzoxazole] | < 100 |
| COc1ccc(COc2ccc3oc(C4Cc5ccccc5O4)nc3c2)nc1 (stereo not shown) [2-(2,3-dihydro-1-benzofuran-2-yl)-5-[(5-methoxypyridin-2-yl)methoxy]-1,3-benzoxazole] | < 100 |
| Brc1cnccc1-c1nc2ccc(OCCN3CCOCC3)cc2s1 [2-(3-bromopyridin-4-yl)-6-[2-(morpholin-4-yl)ethoxy]-1,3-benzothiazole] | < 100 |
| COc1ccc(COc2ccc3oc(N4CC(F)C4)nc3c2)nc1 [2-(3-fluoroazetidin-1-yl)-5-[(5-methoxypyridin-2-yl)methoxy]-1,3-benzoxazole] | 100 to 500 |
| COc1ccc(COc2ccc3oc(-c4ccc(OC)cn4)nc3c2)nc1 [2-(5-methoxypyridin-2-yl)-5-[(5-methoxypyridin-2-yl)methoxy]-1,3-benzoxazole] | < 100 |
| c1cncc(COc2ccc3oc(-c4cccnc4)nc3c2)c1 [2-(pyridin-3-yl)-5-(pyridin-3-ylmethoxy)-1,3-benzoxazole] | < 100 |
| c1cncc(COc2ccc3nc(-c4cccnc4)oc3c2)c1 [2-(pyridin-3-yl)-6-(pyridin-3-ylmethoxy)-1,3-benzoxazole] | < 100 |
| c1cnc(Nc2ccc3oc(-c4cccnc4)nc3c2)nc1 [2-(pyridin-3-yl)-N-(pyrimidin-2-yl)-1,3-benzoxazol-5-amine] | < 100 |
| c1cncc(-c2nc3cc(Nc4ccncn4)ccc3o2)c1 [2-(pyridin-3-yl)-N-(pyrimidin-4-yl)-1,3-benzoxazol-5-amine] | < 100 |
| COc1ccc(C(Nc2cnc3oc(-c4cccnc4)nc3c2)C(F)(F)F)cc1 (stereo not shown) [2-(pyridin-3-yl)-N-[2,2,2-trifluoro-1-(4-methoxyphenyl)ethyl]-[1,3]oxazolo[5,4-b]pyridin-6-amine] | > 50 |
| c1cncc(-c2nc3cc(Nc4nnc5ccccn45)ccc3o2)c1 [2-(pyridin-3-yl)-N-{[1,2,4]triazolo[4,3-a]pyridin-3-yl}-1,3-benzoxazol-5-amine] | < 100 |
| Cn1cc(-c2nc3cc(OCc4cnccn4)cnc3o2)cn1 [2-({[2-(1-methyl-1H-pyrazol-4-yl)-[1,3]oxazolo[5,4-b]pyridin-6-yl]oxy}methyl)pyrazine] | 100 to 500 |
| COc1ccc(COc2ccc3oc(-c4cccc(OCc5ccccc5)c4)nc3c2)nc1 [2-[3-(benzyloxy)phenyl]-5-[(5-methoxypyridin-2-yl)methoxy]-1,3-benzoxazole] | < 100 |

| SMILES | IC50 [nM] |
| --- | --- |
| COCCOc1cncc(-c2nc3cc(OCc4ccc(OC)cn4)ccc3o2)c1 [2-[5-(2-methoxyethoxy)pyridin-3-yl]-5-[(5-methoxypyridin-2-yl)methoxy]-1,3-benzoxazole] | < 100 |
| COc1ccc(COc2ccc3oc([C@H]4Cc5ccccc5O4)nc3c2)nc1 [2-[(2R)-2,3-dihydro-1-benzofuran-2-yl]-5-[(5-methoxypyridin-2-yl)methoxy]-1,3-benzoxazole] | < 100 |
| COc1ccc(COc2ccc3oc([C@@H]4Cc5ccccc5O4)nc3c2)nc1 [2-[(2S)-2,3-dihydro-1-benzofuran-2-yl]-5-[(5-methoxypyridin-2-yl)methoxy]-1,3-benzoxazole] | < 100 |
| COc1ccc(/C=C/c2nc3cc(OCc4ccc(OC)cn4)ccc3o2)cc1 [2-[(E)-2-(4-methoxyphenyl)ethenyl]-5-[(5-methoxypyridin-2-yl)methoxy]-1,3-benzoxazole] | < 100 |
| COc1cnc(COc2cnc3oc(-c4cnn(C)c4)nc3c2)cn1 [2-methoxy-5-({[2-(1-methyl-1H-pyrazol-4-yl)-[1,3]oxazolo[5,4-b]pyridin-6-yl]oxy}methyl)pyrazine] | < 100 |
| COc1ncc(C(=O)Nc2ccc3oc(-c4cccc(C)c4)nc3c2)cn1 [2-methoxy-N-[2-(3-methylphenyl)-1,3-benzoxazol-5-yl]pyrimidine-5-carboxamide] | < 100 |
| COc1ccc(-c2nc3cc(NC(=O)c4ccccc4OC)ccc3o2)cc1 [2-methoxy-N-[2-(4-methoxyphenyl)-1,3-benzoxazol-5-yl]benzamide] | < 100 |
| Cn1nc(COc2cnc3oc(-c4cccnc4)nc3c2)ccc1=O [2-methyl-6-({[2-(pyridin-3-yl)-[1,3]oxazolo[5,4-b]pyridin-6-yl]oxy}methyl)-2,3-dihydropyridazin-3-one] | 100 to 500 |
| Cc1cc(C(=O)Nc2ccc3oc(-c4cccnc4)nc3c2)ccn1 [2-methyl-N-[2-(pyridin-3-yl)-1,3-benzoxazol-5-yl]pyridine-4-carboxamide] | < 100 |
| O=C(COc1ccccc1)Nc1ccc2oc(-c3cccnc3)nc2c1 [2-phenoxy-N-[2-(pyridin-3-yl)-1,3-benzoxazol-5-yl]acetamide] | < 100 |
| O=C(Nc1ccc2oc(-c3cccnc3)nc2c1)c1cccnc1Oc1ccccc1 [2-phenoxy-N-[2-(pyridin-3-yl)-1,3-benzoxazol-5-yl]pyridine-3-carboxamide] | < 100 |
| O=C(Nc1ccc2oc(-c3cccnc3)nc2c1)c1cnc(-c2ccccc2)nc1 [2-phenyl-N-[2-(pyridin-3-yl)-1,3-benzoxazol-5-yl]pyrimidine-5-carboxamide] | < 100 |
| COc1ccc(COc2ccc3oc(N4CCc5nc[nH]c5C4)nc3c2)nc1 [2-{3H,4H,5H,6H,7H-imidazo[4,5-c]pyridin-5-yl}-5-[(5-methoxypyridin-2-yl)methoxy]-1,3-benzoxazole] | < 100 |
| COc1ccc(COc2ccc3oc(-c4ccc5ccccc5n4)nc3c2)nc1 [2-{5-[(5-methoxypyridin-2-yl)methoxy]-1,3-benzoxazol-2-yl}quinoline] | < 100 |
| COc1ccc(COc2ccc3oc(N4CCn5ccnc5C4)nc3c2)nc1 [2-{5H,6H,7H,8H-imidazo[1,2-a]pyrazin-7-yl}-5-[(5-methoxypyridin-2-yl)methoxy]-1,3-benzoxazole] | < 100 |
| COc1ccc(COc2ccc3oc(N4CCn5cncc5C4)nc3c2)nc1 [2-{5H,6H,7H,8H-imidazo[1,5-a]pyrazin-7-yl}-5-[(5-methoxypyridin-2-yl)methoxy]-1,3-benzoxazole] | < 100 |
| COc1ccc(COc2cnc3oc(-c4cnccn4)nc3c2)nc1 [2-{6-[(5-methoxypyridin-2-yl)methoxy]-[1,3]oxazolo[5,4-b]pyridin-2-yl]pyrazine] | < 100 |
| O=C(Nc1ccc2oc(-c3cccnc3)nc2c1)c1cccc(OCc2ccccc2)c1 [3-(benzyloxy)-N-[2-(pyridin-3-yl)-1,3-benzoxazol-5-yl]benzamide] | < 100 |
| N#Cc1ccncc1-c1cc2cc(OCc3cccnc3)ccc2o1 [3-[5-(pyridin-3-ylmethoxy)-1-benzofuran-2-yl]pyridine-4-carbonitrile] | < 100 |
| N#Cc1cccc(C(=O)Nc2ccc3oc(-c4cccnc4)nc3c2)c1 [3-cyano-N-[2-(pyridin-3-yl)-1,3-benzoxazol-5-yl]benzamide] | < 100 |
| COc1cncc(COc2cnc3oc(-c4cccnc4)nc3c2)c1 [3-methoxy-5-({[2-(pyridin-3-yl)-[1,3]oxazolo[5,4-b]pyridin-6-yl]oxy}methyl)pyridine] | < 100 |
